From patent US20260240820A1, “METHOD FOR CONTROLLING MEMBRANE POTENTIAL-DEPENDENT ION CHANNEL THROUGH TYPE I TASTE RECEPTORS (T1RS)” (ION CHAT RESEARCH CORPORATE, priority 2022, published 2026)
Entries after “also recorded” stand apart in the source; their conditions may differ. Where two headings read alike, the source gives them in different places.

Columns and labels:
T1R2/T1R3 = biological target: T1, T1R2/T1R3 (Homo sapiens, UniProt Q7RTX0+Q8TE23); details: Mailliet et al. (2009); read-out: IC50 for inhibition of the sucralose response of the sweet receptor (calcium imaging); cited from earlier work
T1 construct: host or cells: HEK cells overexpressing T1R2, T1R3 and G16-gust44 (Mailliet et al. 2009; Masuda et al. 2012)
T1 sequence (Q8TE23 20-839): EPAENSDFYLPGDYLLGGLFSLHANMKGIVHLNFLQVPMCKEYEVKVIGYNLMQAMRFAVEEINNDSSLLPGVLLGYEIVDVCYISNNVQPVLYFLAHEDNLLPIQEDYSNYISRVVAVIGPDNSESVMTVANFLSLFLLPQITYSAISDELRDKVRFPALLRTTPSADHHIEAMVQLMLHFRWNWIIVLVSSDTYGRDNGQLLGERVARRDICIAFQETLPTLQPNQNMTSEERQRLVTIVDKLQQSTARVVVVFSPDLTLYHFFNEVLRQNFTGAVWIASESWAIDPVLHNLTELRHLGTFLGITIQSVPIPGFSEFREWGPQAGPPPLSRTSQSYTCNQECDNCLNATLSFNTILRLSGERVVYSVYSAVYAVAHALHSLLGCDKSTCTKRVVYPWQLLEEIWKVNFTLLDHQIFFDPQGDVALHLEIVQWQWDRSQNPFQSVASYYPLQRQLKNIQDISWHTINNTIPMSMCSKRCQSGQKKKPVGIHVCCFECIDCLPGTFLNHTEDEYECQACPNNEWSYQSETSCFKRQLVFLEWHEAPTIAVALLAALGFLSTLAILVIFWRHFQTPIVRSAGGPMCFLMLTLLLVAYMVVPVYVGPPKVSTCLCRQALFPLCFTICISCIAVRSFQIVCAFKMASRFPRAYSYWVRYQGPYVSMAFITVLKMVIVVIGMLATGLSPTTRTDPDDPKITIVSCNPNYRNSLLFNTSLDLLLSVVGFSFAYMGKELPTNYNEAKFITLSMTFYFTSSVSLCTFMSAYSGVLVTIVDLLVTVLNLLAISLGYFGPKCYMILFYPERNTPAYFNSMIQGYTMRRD
T1 sequence (Q7RTX0 21-852): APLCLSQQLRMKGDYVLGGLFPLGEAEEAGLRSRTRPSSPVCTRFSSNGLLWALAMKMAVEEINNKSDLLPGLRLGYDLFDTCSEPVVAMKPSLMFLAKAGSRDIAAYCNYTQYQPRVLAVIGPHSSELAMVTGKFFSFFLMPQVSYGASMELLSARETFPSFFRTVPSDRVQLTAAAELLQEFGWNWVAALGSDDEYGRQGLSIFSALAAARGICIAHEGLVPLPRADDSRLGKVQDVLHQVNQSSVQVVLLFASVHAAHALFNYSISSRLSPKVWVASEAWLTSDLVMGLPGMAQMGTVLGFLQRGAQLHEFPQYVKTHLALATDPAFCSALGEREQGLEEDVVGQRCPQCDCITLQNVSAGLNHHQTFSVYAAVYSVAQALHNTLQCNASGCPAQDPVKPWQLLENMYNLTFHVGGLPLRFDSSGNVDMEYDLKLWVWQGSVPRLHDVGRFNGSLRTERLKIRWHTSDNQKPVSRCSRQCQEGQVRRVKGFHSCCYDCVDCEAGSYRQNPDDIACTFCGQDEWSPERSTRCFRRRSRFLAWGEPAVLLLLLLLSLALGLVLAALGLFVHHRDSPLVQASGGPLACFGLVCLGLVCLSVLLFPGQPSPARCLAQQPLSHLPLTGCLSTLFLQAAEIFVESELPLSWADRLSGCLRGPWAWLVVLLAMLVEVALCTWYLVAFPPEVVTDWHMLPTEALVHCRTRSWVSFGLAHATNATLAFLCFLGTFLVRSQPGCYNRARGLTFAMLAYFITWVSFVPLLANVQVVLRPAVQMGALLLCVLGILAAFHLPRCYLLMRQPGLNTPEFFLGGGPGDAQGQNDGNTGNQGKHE

Nav1.5 = experiment: Patch-clamp (voltage clamp) recording of VGSC current in HEK cells stably expressing Nav1.5; details: for IC50: read-out: IC50 (VGSC inhibition)
Cav1.2 = experiment: Intracellular calcium measurement in HEK cells stably expressing Cav1.2 after KCl depolarisation; type: cell-based, human; details: 12.5 nM
Description: Specifically, experiments were conducted using a method to measure intracellular calcium concentration in HEK cells stably expressing Cav1.2. […] High concentrations of KCl depolarize the cell membrane potential by depolarizing the potassium equilibrium potential from the resting potential, activating voltage-gated calcium channels (VGCC, Cav1.2) that are activated by depolarization, and allowing extracellular calcium to flow into the cell through these calcium channels. (FIG. 47A) measures the activation process of intracellular calcium increase caused by the activation of these VGCCs.
The calcium response to high concentrations of potassium decays with a certain regularity, so the process was approximated using the Hyperbolic Decline formula
and the difference between the curve obtained (dashed line in FIG. 47A) and the experimental values was calculated to derive the enhancement of intracellular calcium by Aβ1-42 peptide.

Nav1.6 [1] = experiment: Patch-clamp recording of VGSC current in HEK (Nav1.6) cells; type: cell-based, human
Source text: The cells used in the previous (18-1) experiment were cardiac-type VGSC cells. In this experiment, HEK (Nav1.1) and HEK (Nav1.6) cells, which are considered neuronal VGSC cells, were created. The effects of four peptides—Aβ25-35, Aβ1-38, Aβ1-40, and Aβ1-42—were examined using the same experimental protocol as in (18-1). […]

Kv1.2 = experiment: Patch-clamp recording of Kv1.2 potassium current in HEK cells expressing Kv1.2; type: cell-based, human
Description: The effects of Aβ peptides or umami substances on sustained potassium currents (VGKC) in cardiac myocytes can be studied using HEK cells expressing VGKC (such as Kv1.2, Kv3.2, Kv3.3) as well as SH-SY5Y cells expressing endogenous T1R GPCRs. For instance, as shown in the implementation example in (FIG. 36B), Aβ peptides were applied to VGKC-expressing human cultured cells, and VGKC currents were recorded using ramp-like or rectangular voltage waveforms via the patch-clamp technique. This allowed measurement of the changes (inhibition) in VGKC currents caused by Aβ peptides. Similar inhibition studies on VGKC can be conducted using umami substance L-glutamate sodium (MSG) (FIG. 36A).
As shown in (FIG. 37), Aβ1-42 peptide, unlike Aβ25-35 targeting T1R3, interacts with T1R1 and inhibits VGSC currents (FIGS. 37D, E).

[2] = test system: Nav1.5 in T1R3-silenced HEK cells; experiment: VGSC current in HEK Nav1.5 cells with silenced T1R3; type: cell-based, human
Source text: The miRNAs Oligo (Thermofisher) used for silencing were annealed to form double-stranded DNA, which was then linked to the miR RNAi Expression Vector using T4 DNA ligase to create the knockdown vector. Specifically, the procedure followed the miR RNAi Expression Vector Kit manual (BLOCK-i™ Pol II miR RNAi Expression Vector Kit with EmGFP (Catalog number: K493600)).
Since Aβ25-35 peptide produced similar effects (enhancing VGSC activity, lowering the excitability threshold) as glutamine, it was considered that Aβ25-35 peptide might also act on T1R2/T1R3 receptors like glutamine. Therefore, in this implementation example, we used HEK-Nav1.5 cells with silenced T1R3 and compared the effect of Aβ25-35 peptide on VGSC with that in control HEK-Nav1.5 cells.
To strengthen these findings, we conducted similar experiments using HEK Nav1.5 cells in which T1R3 expression was silenced (FIG. 22). We measured VGSC currents in T1R3-silenced HEK Nav1.5 cells, applying stimuli every 8 seconds.

Nav1.6 [3] = experiment: Patch-clamp recording of VGSC current in HEK (Nav1.6) cells; type: cell-based, human; details: HEK cells expressing Nav1.6 and Kv1.2
HEK Nav1.5 cells = experiment: GFP-Tubulin / GFP-Actin cytoskeleton observation in HEK Nav1.5 cells; type: cell-based, human
Source text: To observe the impact of cinacalcet and Aβ1-42 peptide on microfilament (actin) fiber structures, we labeled cells with GFP-Actin (FIG. 34). […] This experimental approach, using GFP-Tubulin, GFP-Actin, or other fluorescent proteins to label microtubules and microfilaments, can be used to screen compounds that regulate the activity of ion channels and neuronal function-controlling proteins. Additionally, simultaneous labeling of tubulin and actin can be achieved using fluorescent antibodies or phalloidin after cell fixation.

[4] = test system: endogenous T1R GPCR of HEK cells; experiment: Intracellular calcium (Cal-520) in HEK cells stably expressing Nav1.1 with endogenous T1R GPCR; type: cell-based, human; details: 10 nM then 20 nM for Aβ1-40 and Aβ1-42
Description: Specifically, experiments were conducted as follows using HEK cells stably expressing Nav1.1 (FIG. 45). The calcium-sensitive reagent (Cal-520, AAT Bioquest) was incubated at 37° C. for 60 minutes, followed by incubation at room temperature for 30 minutes, and then changes in intracellular calcium were measured using a fluorescence microscope. […] Initially, 10 nM, followed by 20 nM of Aβ1-40 was applied after 5 minutes (arrow). […] A total of 6 cell groups from two independent experiments were measured, averaged by the maximum fluorescence response value, and the mean and standard error (stderr) were calculated and plotted. […] 10 nM, followed by 20 nM of Aβ1-42 was applied after 5 minutes (arrow). […] A total of 12 cell groups from two independent experiments were measured, averaged by the minimum fluorescence response value, and the mean and standard error (stderr) were calculated and plotted. Similar to the experimental results using the patch-clamp method when Aβ peptide was applied to Nav1.5, it was confirmed from intracellular calcium measurements that the effects of Aβ1-40 and Aβ1-42 were different.

Nav1.1 = experiment: Patch-clamp recording of VGSC current in HEK (Nav1.1) cells; type: cell-based, human
Source text: The cells used in the previous (18-1) experiment were cardiac-type VGSC cells. In this experiment, HEK (Nav1.1) and HEK (Nav1.6) cells, which are considered neuronal VGSC cells, were created. The effects of four peptides—Aβ25-35, Aβ1-38, Aβ1-40, and Aβ1-42—were examined using the same experimental protocol as in (18-1).

VGSC = experiment: Patch-clamp recording of VGSC current, cell type not specified or several cell types (summary statements); type: cell-based, human

## CCOC(=O)C(C)(C)Oc1ccc(Cl)cc1 [Clofibrate]
T1R2/T1R3
  IC50: 28 µM
Nav1.5; prepulse −80 mV
  IC50: 580 µM
Nav1.5; prepulse −100 mV
  IC50: 1200 µM
Nav1.5; prepulse −120 mV
  IC50: 1040 µM

## Aβ1-42: amyloid β peptide, Sequence No. 4
Cav1.2
  Intracellular calcium after KCl-induced Cav1.2 activation: further increase in intracellular calcium
Cav1.2; n=3
  Enhancement of intracellular calcium relative to response to high concentrations of potassium: about 11%
Nav1.5; 12.5 nM and 25 nM
  Effect on VGSC current: concentration-dependent reductions in VGSC current
Nav1.5; 12.5 nM, perforated patch-clamp with Gramicidin
  Effect on Nav1.5 VGSC current: enhanced; also recorded: enhancement effect
Nav1.5; 74 nM
  Shift of I-V plot peak in the hyperpolarizing direction: 5-10 mV
Nav1.5; 74 nM, whole-cell voltage clamp, listed as Aβ1-42 peptide
  Effect on VGSC current: decreasing trend; also recorded: suppressed sodium channel currents
Nav1.6 [1]
  Effect on VGSC current: enhancement of VGSC was observed
Kv1.2
  Effect on voltage gated K+ channel (Kv1.2) current: reduced Kv1.2 potassium current; also recorded: concentration-dependently inhibits Kv1.2 potassium currents
Kv1.2; listed as Aβ42 peptide
  Effect on voltage gated K+ channel (Kv1.2) current: Inhibition of Voltage gated
[2]
  Effect on VGSC in T1R3-silenced cells: is lost
Nav1.6 [3]
  Effect on Nav1.6 VGSC current: amplified; also recorded: enhancing effect
HEK Nav1.5 cells
  Microfilament structure (GFP-Actin): condensed GFP-Actin structures
[4]
  Change in intracellular calcium: biphasic response; also recorded: transiently decreased, slowly recovered, and then began to increase
Nav1.1
  Effect on VGSC current: enhancement of VGSC was observed
VGSC
  Effect on VGSC inactivation: delays the inactivation
  Effects on VGSCs: Delay in VGSC inactivation
